Results from patent US20050060764A1, “Mouse model for bone metabolism” (priority 2003, published 2005).
Strand notation (5' to 3'): a small letter for the sugar, then the base; units joined by * are phosphorothioate-linked, units joined directly phosphodiester-linked; [ ] holds rarer units or linkages, { } end groups; capitals alone tell only the bases. e = 2'-O-(2-methoxyethyl) (MOE); [5mC] = 5-methylcytosine; d = 2'-deoxy (DNA)

tested on: rat RANKL mRNA; assay: Antisense inhibition of rat RANKL mRNA levels in UMR-106 cells, quantitative real-time PCR (Table 3); format: cell-based; parameters: concentration or dose not given beside the values; details: averages from three experiments
Method: Cells were seeded onto 24-well plates (Falcon-353047) at a density of […] for use in antisense oligonucleotide transfection.
Cells are treated and data are obtained in triplicate. […] Cells were harvested 16-24 hours after oligonucleotide treatment.
PCR reagents were obtained from Invitrogen Corporation, (Carlsbad, Calif.).
Probes and primers to rat RANKL were designed to hybridize to a rat RANKL sequence, using published sequence information (GenBank accession number NM_057149.1, incorporated herein as SEQ ID NO:18). For rat RANKL the PCR primers were: • forward primer: […] (SEQ ID NO:19) • reverse primer: […] (SEQ ID NO: 20) and the • PCR probe was: FAM-[…]-TAMRA (SEQ ID NO: 21) where FAM is the fluorescent reporter dye and TAMRA is the quencher dye. For rat GAPDH the PCR primers were: • forward primer: […](SEQ ID NO:22) • reverse primer: […](SEQ ID NO:23) and the • PCR probe was: 5′ JOE-[…]-TAMRA 3′ (SEQ ID NO: 24) where JOE is the fluorescent reporter dye and TAMRA is the quencher dye.
In accordance with the present invention, a second series of antisense compounds was designed to target different regions of the rat RANKL RNA, using published sequences (GenBank accession number NM_057149.1, incorporated herein as SEQ ID NO: 18, and GenBank accession number AF425669.1, incorporated herein as SEQ ID NO: 200). […] All cytidine residues are 5-methylcytidines. […] If present, “N.D.” indicates “no data”.

Question: How did the “% INHIB (inhibition of rat RANKL mRNA levels)” value (“% INHIB” below) turn out when “286629 (antisense eA*e[5mC]*e[5mC]*eA*eT*d[5mC]*dA*dG*d[5mC]*dT*dG*dA*dA*dG*dA*eT*eA*eG*eT*e[5mC]) [compound 286629]” was run?
Answer: 63%

Question: “tcagtctatgtcttgaactt (eT*e[5mC]*eA*eG*eT*d[5mC]*dT*dA*dT*dG*dT*d[5mC]*dT*dT*dG*eA*eA*e[5mC]*eT*eT; antisense) [ISIS 286642, 2′-MOE gapmer targeted to rat RANKL]” was tested. Which “% INHIB” value did it give?
Answer: at least 40%

Question: How did the “% INHIB” value turn out when “gcgatgctgcagaccacctg (antisense eG*e[5mC]*eG*eA*eT*dG*d[5mC]*dT*dG*d[5mC]*dA*dG*dA*d[5mC]*d[5mC]*eA*e[5mC]*e[5mC]*eT*eG) [ISIS 286588, 2′-MOE gapmer targeted to rat RANKL]” was run?
Answer: at least 40%

Question: For “gcgtacaggtaatagaagcc (eG*e[5mC]*eG*eT*eA*d[5mC]*dA*dG*dG*dT*dA*dA*dT*dA*dG*eA*eA*eG*e[5mC]*e[5mC]; antisense) [ISIS 286625, 2′-MOE gapmer targeted to rat RANKL]”, which “% INHIB” value is on record?
Answer: at least 40%

Question: How did the “% INHIB” value turn out when “286647 (antisense eG*eA*e[5mC]*e[5mC]*eT*dG*dT*dA*d[5mC]*dA*dG*dG*dG*dT*d[5mC]*eG*eA*eG*eA*eG) [compound 286647]” was run?
Answer: 53%

Question: For “286597 (antisense eG*eA*eT*eA*eT*dT*d[5mC]*dT*dG*dT*dT*dA*dG*dG*dA*eT*e[5mC]*e[5mC]*eA*eT) [compound 286597]”, which “% INHIB” value is on record?
Answer: 57%

Question: For “agtcgagtcctgcaaacctg (eA*eG*eT*e[5mC]*eG*dA*dG*dT*d[5mC]*d[5mC]*dT*dG*d[5mC]*dA*dA*eA*e[5mC]*e[5mC]*eT*eG; antisense) [ISIS 286603, 2′-MOE gapmer targeted to rat RANKL]”, which “% INHIB” value is on record?
Answer: at least 40%

Question: For “286646 (antisense eT*eT*eT*eT*eG*dT*dA*d[5mC]*dA*dA*d[5mC]*dG*dT*dG*dG*eG*e[5mC]*e[5mC]*eA*e[5mC]) [compound 286646]”, which “% INHIB” value is on record?
Answer: 53%

Question: For “aggttctcagtggcacaggc (eA*eG*eG*eT*eT*d[5mC]*dT*d[5mC]*dA*dG*dT*dG*dG*d[5mC]*dA*e[5mC]*eA*eG*eG*e[5mC]; antisense) [ISIS 286651, 2′-MOE gapmer targeted to rat RANKL]”, which “% INHIB” value is on record?
Answer: at least 40%

Question: With “ttttgtacaacgtgggccac (eT*eT*eT*eT*eG*dT*dA*d[5mC]*dA*dA*d[5mC]*dG*dT*dG*dG*eG*e[5mC]*e[5mC]*eA*e[5mC]; antisense) [ISIS 286646, 2′-MOE gapmer targeted to rat RANKL]” as the substance, how does the “% INHIB” value read?
Answer: at least 40%

Question: For “286588 (antisense eG*e[5mC]*eG*eA*eT*dG*d[5mC]*dT*dG*d[5mC]*dA*dG*dA*d[5mC]*d[5mC]*eA*e[5mC]*e[5mC]*eT*eG) [compound 286588]”, which “% INHIB” value is on record?
Answer: 63%

Question: Which “% INHIB” value does the source give for “286617 (antisense eA*eG*eT*eT*eT*dT*d[5mC]*d[5mC]*dG*dT*dT*dG*d[5mC]*dT*dT*eA*eA*e[5mC]*eG*eT) [compound 286617]” here?
Answer: 52%

Question: With “gatattctgttaggatccat (eG*eA*eT*eA*eT*dT*d[5mC]*dT*dG*dT*dT*dA*dG*dG*dA*eT*e[5mC]*e[5mC]*eA*eT; antisense) [ISIS 286597, 2′-MOE gapmer targeted to rat RANKL]” as the substance, how does the “% INHIB” value read?
Answer: at least 40%

Question: How did the “% INHIB” value turn out when “286628 (antisense eA*eG*eA*eT*eA*dG*dT*d[5mC]*d[5mC]*dG*d[5mC]*dA*dG*dG*dT*eA*e[5mC]*eG*e[5mC]*eT) [compound 286628]” was run?
Answer: 24%

Question: For “286648 (antisense e[5mC]*e[5mC]*eA*eT*eT*dG*dT*dG*dT*dG*dA*dT*d[5mC]*dA*d[5mC]*e[5mC]*eA*eT*eG*eA) [compound 286648]”, which “% INHIB” value is on record?
Answer: 72%

Question: “286634 (antisense eA*eA*eT*eT*e[5mC]*dA*dG*dA*dA*dT*dT*d[5mC]*d[5mC]*d[5mC]*dT*eG*eA*e[5mC]*e[5mC]*eA) [compound 286634]” was tested. Which “% INHIB” value did it give?
Answer: 21%

Question: “286598 (antisense e[5mC]*eT*eT*e[5mC]*eT*dG*dA*dT*dA*dT*dT*d[5mC]*dT*dG*dT*eT*eA*eG*eG*eA) [compound 286598]” was tested. Which “% INHIB” value did it give?
Answer: 6%

Question: For “gcaaatgttggcgtacaggt (eG*e[5mC]*eA*eA*eA*dT*dG*dT*dT*dG*dG*d[5mC]*dG*dT*dA*e[5mC]*eA*eG*eG*eT; antisense) [ISIS 286627, 2′-MOE gapmer targeted to rat RANKL]”, which “% INHIB” value is on record?
Answer: at least 40%

Question: How did the “% INHIB” value turn out when “cgcgtgctgtcttctgatat (e[5mC]*eG*e[5mC]*eG*eT*dG*d[5mC]*dT*dG*dT*d[5mC]*dT*dT*d[5mC]*dT*eG*eA*eT*eA*eT; antisense) [ISIS 286599, 2′-MOE gapmer targeted to rat RANKL]” was run?
Answer: at least 40%

Question: Which “% INHIB” value does the source give for “286632 (antisense e[5mC]*eT*eT*eG*eG*dG*dA*dT*dT*dT*dT*dG*dA*dT*dG*e[5mC]*eT*eG*eG*eT) [compound 286632]” here?
Answer: 51%

Question: “286645 (antisense e[5mC]*eT*eT*eA*eG*dT*dA*dG*dT*d[5mC]*dT*dT*dA*d[5mC]*dA*e[5mC]*eA*eT*eG*eT) [compound 286645]” was tested. Which “% INHIB” value did it give?
Answer: 51%

Question: “286601 (antisense eT*e[5mC]*eA*e[5mC]*eG*dG*dA*dG*dT*d[5mC]*dT*d[5mC]*dA*dG*dA*eA*eT*eT*e[5mC]*eT) [compound 286601]” was tested. Which “% INHIB” value did it give?
Answer: 63%

Question: With “286654 (eA*e[5mC]*eT*eT*eA*dT*dT*dT*dG*d[5mC]*dA*dG*dG*dT*dT*e[5mC]*e[5mC]*eA*eG*e[5mC]; antisense) [compound 286654]” as the substance, how does the “% INHIB” value read?
Answer: 55%

Question: For “cccaaagtacgtcgcatctt (e[5mC]*e[5mC]*e[5mC]*eA*eA*dA*dG*dT*dA*d[5mC]*dG*dT*d[5mC]*dG*d[5mC]*eA*eT*e[5mC]*eT*eT; antisense) [ISIS 286639, 2′-MOE gapmer targeted to rat RANKL]”, which “% INHIB” value is on record?
Answer: at least 40%

Question: How did the “% INHIB” value turn out when “286591 (antisense eA*eA*eG*eT*eA*d[5mC]*dA*dG*dG*dA*dA*d[5mC]*dA*dG*dA*eG*e[5mC]*eG*eA*eT) [compound 286591]” was run?
Answer: 17%

Question: With “gtggcacaggcccaggagtt (eG*eT*eG*eG*e[5mC]*dA*d[5mC]*dA*dG*dG*d[5mC]*d[5mC]*d[5mC]*dA*dG*eG*eA*eG*eT*eT; antisense) [ISIS 286650, 2′-MOE gapmer targeted to rat RANKL]” as the substance, how does the “% INHIB” value read?
Answer: at least 40%

Question: For “aaagccccaaagtacgtcgc (eA*eA*eA*eG*e[5mC]*d[5mC]*d[5mC]*d[5mC]*dA*dA*dA*dG*dT*dA*d[5mC]*eG*eT*e[5mC]*eG*e[5mC]; antisense) [ISIS 286640, 2′-MOE gapmer targeted to rat RANKL]”, which “% INHIB” value is on record?
Answer: at least 40%

Question: How did the “% INHIB” value turn out when “286612 (antisense eT*eG*eG*eT*eA*d[5mC]*d[5mC]*dA*dA*dG*dA*dG*dG*dA*d[5mC]*eA*eG*eA*e[5mC]*eT) [compound 286612]” was run?
Answer: 5%

Question: How did the “% INHIB” value turn out when “taggatccatctgcgctcga (eT*eA*eG*eG*eA*dT*d[5mC]*d[5mC]*dA*dT*d[5mC]*dT*dG*d[5mC]*dG*e[5mC]*eT*e[5mC]*eG*eA; antisense) [ISIS 286595, 2′-MOE gapmer targeted to rat RANKL]” was run?
Answer: at least 40%
